Assay results: patent publication US20110293530A1, “Methods and Compositions for Using Bleomycin-Derivatized Microbubbles” (ARIZONIA BOARD OF REGENTS, priority 2008, published 2011)
Entries after “also recorded” stand apart in the source; their conditions may differ.

What was measured:
[1] = test system: MCF-7 human breast carcinoma cells; assay: microbubble attachment to cells, parallel plate flow chamber; assay type: cell-based; details: 400×
Description: MCF-7 human breast carcinoma cells (ATCC, Manassas, Va.) were grown on sterile glass cover slips (40 mm) and incubated at 37° C. until they reached 40-60% confluency in a 5% fetal bovine serum/RPMI1640 medium solution.
(§1) To create biotinylated microbubbles, the synthesized biotin-bleomycin A5 ligand was conjugated to Targestar^B Targeted Ultrasound Contrast Agent (Targeson). Four hundred microliters of Coupling Reagent (Targeson) were added to 1.5 mL of conjugated Targestar^B microbubbles and incubated for 20 min at room temperature, with gentle agitation every 5 min. The product was divided into two syringes, rinsed with 1.75 mL of Infusion Buffer, and then centrifuged for 3 min at 400×g (10° C.). The infranatant was then drained to 1 mL. Fifty μL of biotinylated bleomycin A5 was added to one of the vials and both were incubated at room temperature for 20 min with gentle agitation every 5 min. To each sample was added 1.75 mL of Infusion Buffer before centrifugation for 3 min at 400×g (10° C.). This solution was then drained to 1.0 mL before recovery of the supernatant and repetition of the previous step. Finally, the supernatant was resuspended in Infusion Buffer to a final volume of 2.0 mL.
Attachment of the biotinylated microbubble to the cultured MCF-7 breast cancer cells was imaged using an inverted microscope Zeiss Axiovert 200M fitted with an AxioCam MRm camera. Adherent cancer cells on glass cover slips were assembled into a parallel plate flow chamber (Bioptechs FCS2, Micro-Environmental Systems) with a constant temperature maintained at 37° C. The prepared solution of biotinylated microbubbles was introduced into the parallel plate flow chamber via ⅛-inch diameter tubing (Silastic) at a controlled rate of 0.01 mL/min using an adjustable infusion-withdrawal syringe pump (Harvard Apparatus, Holliston, Mass.). A negative control experiment was performed using a preparation of Targestar^B microbubbles without any added biotin-bleomycin A5 ligand. ‘Normal’ human breast MCF-10A cells were used as well for comparison purposes. […]

[2] = test system: MCF-10A 'normal' human breast cells; assay: as above; assay type: cell-based; details: MCF-10A 'normal' breast cells; 400×; FIGS. 5, 9-11
Description: as §1
Attachment of the biotinylated microbubble to the cultured MCF-7 breast cancer cells was imaged using an inverted microscope Zeiss Axiovert 200M fitted with an AxioCam MRm camera. Adherent cancer cells on glass cover slips were assembled into a parallel plate flow chamber (Bioptechs FCS2, Micro-Environmental Systems) with a constant temperature maintained at 37° C. […]

| Substance | Targestar B microbubble attachment to cells (microscopy, in words) ([1]; FIGS. 3, 4, 6-8) | Targestar B microbubble attachment to cells (microscopy, in words) [2] | Targestar B microbubble attachment to cells (microscopy, in words) ([1]; FIGS. 3, 4, 6-8, listed as biotinylated BLM A5) | Targestar B microbubble attachment to cells (microscopy, in words) ([1]; FIGS. 3, 4, 6-8, listed as biotinylated bleomycin) |
| --- | --- | --- | --- | --- |
| biotinylated deglycobleomycin A5 | does not promote Targestar B microbubble attachment; also recorded: did not reveal the presence of microbubbles attached | does not promote Targestar B microbubble attachment; also recorded: lack of attachment |  |  |
| biotinylated bleomycin A5 [Biotinylated BLM A5] |  | attachment was not observed | selective attachment | did promote attachment |
